Columns and labels:
[1] = system: rapeseed (Brassica napus L. var. napus) seeds; experiment: Phytotest 1: phytotoxicity, seed germination and root growth; type: in vivo; settings: 50 µg/mL; versus water–ethanol 0.5% (v/v) control; <90% inhibition, 90–110% no effect, >110% stimulation
From the text: (§1) In the experiments with plants, two aspects were taken under consideration: (1) phytotoxicity, which determined the toxicity of the hydrazide–hydrazones on seed germination and root growth, and (2) study on the behavior of seeds in the presence of the tested hydrazide–hydrazones and pathogens producing laccase (B. cinerea and S. sclerotiorum). The non-coated seeds of Linum usitatissimum, Helianthus annuus, and Brassica napus var. napus were provided by the Institute of Soil Science and Plant Cultivation, National Research Institute in Pulawy, Department of Weed Science and Tillage Systems, and Institute of Technology and Life Sciences–National Research Institute Falenty (Poland). Both phytotests were performed based on direct-contact microbiotests following the protocol recommended by the manufacturer (PhytotestkitTM, MicroBio Tests, Mariakerke, Belgium) with the authors’ modifications.
(§2) The main phytotest equipment (Tigret, Warsaw, Poland) and general methods are described as follows. Test plates (21 × 15.5 × 0.8 cm) provide optimal moisture and enable observation of seed germination and data reading at the end of the test. A single plate is made of polyvinylchloride and composed of both a transparent bottom and a covering part that are stuck together by a set of press buttons. […] Such prepared wet support was covered with a black filter paper that soaked the solution and was applied for further testing.
(§3) In the assay of phytotoxicity (1), the seeds of three dicota plants were used, namely ten seeds of flax or rapeseed and six seeds of sunflower. The seeds were transferred directly on the filter surface by placing them along the line at approximately 1 cm from the ridge at equal distances. Then, the seeds on the filter surface were covered with a covering part and placed in a holder.
(§4) All test plates were put vertically in a special incubator to allow free germination and growth of roots at 25 °C through 5 days in the dark. The test was performed in triplicate for each test plant. The results were expressed as the germination index values (GI, Equation (2)) concerning the plant growth controls in water–ethanol solution for (1). […] The GI was calculated from the formula and categorized as an inhibition for GI values < 90%, as stimulation > 110%, and between 90 and 110% as non-toxic/no effect as proposed in the literature. (2) GI,%=Gs×Ls/Gc×Lc×100% where Gs is seed germination (%), Ls is root elongation (mm) for the test plate, and Gc and Lc are corresponding values for the control plates. Gc was calculated as the proportion of germinated seeds in the test in relation to the number of germinated seeds in the control. The control was the representative number of seeds that germinated on a medium with 0.5% (v/v) of ethanol.

Balb/3T3 cells = experiment: Antiproliferative assay in vitro (SRB); type: cell-based, mouse; settings: Mus musculus, BALB/3T3; 72 h exposure, SRB method; read-out: Average IC50 ± SD, Balb/3T3 line
Method: Antiproliferative tests were performed on a normal human breast cell line, MCF-10A, and a mouse embryonic fibroblast: Balb/3T3. Both cell lines were obtained from the American Type Culture Collection (Rockville, MD, USA). The cell lines were maintained in the Institute of Immunology and Experimental Therapy, Wroclaw, Poland. MCF-10A cells were cultured in the F-12 nutrient mixture (Gibco, Scotland, UK), supplemented with 5% horse serum (Gibco, Scotland, UK), […] (Vibrio cholerae Pacini), 10 μg/mL of hydrocortisone and 20 ng/mL of human epidermal growth factor (all from Sigma-Aldrich, Chemie GmbH, Steinheim, Germany). Balb/3T3 cells were cultured in Dulbecco medium (Gibco, Darmstadt, Germany) supplemented with 10% fetal bovine serum (Thermo Fisher Scientific, Waltham, MA, USA) and 2 mM l-glutamine (Sigma-Aldrich, St. Louis, MO, USA). All culture media contained antibiotics: 100 U/mL penicillin (Sigma-Aldrich, St. Louis, MO, USA) and 100 µg/mL streptomycin (Polfa-Tarchomin, Warsaw, Poland). Both cell lines were cultured during the entire experiment in a humid atmosphere at 37 °C and 5% CO2. Amistar 250 SC (fungicide) with active compound azoxystrobin was provided by the Institute of Soil Science and Plant Cultivation, National Research Institute in Pulawy, Department of Weed Science and Tillage Systems in Wroclaw, Poland […].
Twenty-four hours prior to the applications of the tested compounds, MCF-10A and Balb/3T3 cells were plated in 96-well plates at a density of 10^4 cells per well and cultured at 37 °C in a humid atmosphere saturated with 5% CO2 for 24 h. Stock solutions of the compounds were prepared ex tempore for each test by dissolving in DMSO. The cells were also exposed to the reference drugs: cis-platin (Accord, London, UK) (10–0.01 µg/mL) and DMSO (Sigma-Aldrich) (at the concentrations corresponding to those in the tested agent dilutions). The solutions were then diluted in culture medium RPMI 1640 + Opti-MEM (1:1) (both from Gibco, Scotland, UK), supplemented with 2 mM l-glutamine, 5% fetal bovine serum (all from Sigma-Aldrich Chemie GmbH, Steinheim, Germany). An assay was performed after 72 h of exposure to the tested compounds 13, 17, 18, 19, 25, 27, 30, 4-hba, 4-hbah, and 3,4,5-hba (0.5, 5.0, 50, and to 500 µM) and azoxystrobin fungicide (0.05, 0.5, 5.0 and 50 µM). The antiproliferative effect in vitro was determined by the SRB method (sulforhodamine B colorimetric assay). The optical densities of the samples were measured on the Synergy H4 photometer (BioTek Instruments, Winooski, VT, USA) at 540 nm. The results were calculated as 50% inhibitory concentration (IC50), namely the dose of the tested compound inhibiting proliferation of the tested cells by 50% as compared to the untreated control cells, in the Prolab-3 system based on Cheburator 0.4 software using the two-point method. Each test was repeated 3–5 times.
Cytotoxicity was performed on two normal cell lines: MCF -10A and Balb/3T3, using as controls cis-platin in the concentrations of 0.03 32, 0.3 32, 3.32 and 33.2 µM and azoxystrobin fungicide in the […]
were tested in the concentrations of 0.5, 5.0, 50, and 500 µM. The relation of compound concentration […]
Further, a comparison of the influence of each tested concentration in the group of tested compounds on cell lines was illustrated in Figure S130 a (MCF-10A) and b (Balb/T3T).
Table S4. Cytotoxicity results for compounds 13, 17, 18, 19, 25, 27, and 30 investigated on normal mammalian lines: MCF -10A and B alb/3T3 using Azoxystrobin (fungicide) and cis-platin as reference compounds.
Cytotoxicity profile presented as proliferation inhibition, % (y -axis) in the function of compound concentration, […]
Structure MCF-10A Balb/3T3
Proliferation inhibition [%] […]

[2] = system: flax (Linum usitatissimum L.) seeds; experiment: Phytotest 1: phytotoxicity, seed germination and root growth; type: in vivo; settings: 50 µg/mL; versus water–ethanol 0.5% (v/v) control; <90% inhibition, 90–110% no effect, >110% stimulation
From the text: as §1, §2, §3, §4

Compound | Germination index (GI), rapeseed, test 1 [1] | IC50 (Balb/3T3 cells) [µM] | Germination index (GI), flax, test 1 [2] | melting point
COc1cc(/C=N/NC(=O)c2ccc(O)cc2)ccc1O [compound 17] | 81% | 217 ± 61.2 | – | –
CC(C)(C)c1cccc(/C=N/NC(=O)c2ccc(O)cc2)c1O [compound 18] | 67% | 11.4 ± 2.54 | stimulating | –
Cc1cc(/C=N/NC(=O)c2ccc(O)cc2)c(O)c(CO)c1 [compound 25] | stimulated | 27.2 ± 4.3 | stimulated | –
O=C(N/N=C/c1cccc(-c2ccccc2)c1O)c1ccc(O)cc1 [compound 19] | stimulating | 3.97 ± 0.15 | – | –
O=C(N/N=C/c1cc(O)ccc1O)c1ccc(O)cc1 [compound 13] | – | 132 ± 9.22 | – | 304 °C (dec.)
Cc1cc(/C=N/NC(=O)c2ccc(O)cc2)c(O)c(C(C)(C)C)c1 [compound 30] | – | 23.1 ± 3.87 | – | –
CC(C)(C)c1cc(/C=N/NC(=O)c2ccc(O)cc2)c(O)c(C(C)(C)C)c1 [compound 27] | 83% | 11.7 ± 0.69 | – | –
